What was measured:
Test in all cases: relative viability (nuclei count vs DMSO), 5 days (fraction); higher = more cells survive
HCC-44 = test system: HCC-44
Procedure, shortened: (§1)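 Nuclei were stained with Hoechst during a one-step fixation (final 0.05% Triton X-100, 1% formaldehyde, 1 ug/ml Hoechst) carried out 5 days after dosing, then counted on 4× images. The cells, lung cancer lines in 1536-well plates, had been dosed by pin tool the day after seeding with one drug alone or a fixed anchor-drug dose plus five library-drug doses (not always all listed) in √10 steps. Relative viability is the nuclei count in treated wells divided by that in vehicle wells, and each value is the median of duplicate plates.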

SW 1573 = test system: SW 1573
Procedure, shortened: as §1

LC-2-ad = test system: LC-2-ad
Procedure, shortened: as §1

NCI-H2126 = test system: NCI-H2126
Procedure, shortened: as §1

NCI-H650 = test system: NCI-H650
Procedure, shortened: as §1

PC-14 = test system: PC-14
Procedure, shortened: as §1

UMC-11 = test system: UMC-11
Procedure, shortened: as §1

NCI-H1915 = test system: NCI-H1915
Procedure, shortened: as §1

NCI-H1355 = test system: NCI-H1355
Procedure, shortened: as §1

NCI-H1651 = test system: NCI-H1651
Procedure, shortened: as §1

EPLC-272H = test system: EPLC-272H
Procedure, shortened: as §1

NCI-H2085 = test system: NCI-H2085
Procedure, shortened: as §1

HOP-62 = test system: HOP-62
Procedure, shortened: as §1

HCC-15 = test system: HCC-15
Procedure, shortened: as §1

ABC-1 = test system: ABC-1
Procedure, shortened: as §1

LU99A = test system: LU99A
Procedure, shortened: as §1

NCI-H838 = test system: NCI-H838
Procedure, shortened: as §1

NCI-H2347 = test system: NCI-H2347
Procedure, shortened: as §1

HARA = test system: HARA
Procedure, shortened: as §1

NCI-H1993 = test system: NCI-H1993
Procedure, shortened: as §1

NCI-H2023 = test system: NCI-H2023
Procedure, shortened: as §1

COR-L23 = test system: COR-L23
Procedure, shortened: as §1

Which relative viability (HCC-44; first compound 0.005 µM) does the source give for `Nc1ccn([C@@H]2O[C@H](CO)[C@@H](O)[C@@H]2O)c(=O)n1` [Cytarabine] + Cc1cc(Nc2cc(N3CCN(C)CC3)nc(Sc3ccc(NC(=O)C4CC4)cc3)n2)n[nH]1 [Tozasertib] (partner 0.1 µM) here?
Its relative viability is 0.925.

What about the relative viability (HCC-44; first compound 0.01581 µM) of the same compound?
The relative viability was 0.928.

What about the relative viability (HCC-44; first compound 0.05 µM) of the same compound?
Its relative viability is 0.418.

And the relative viability (HCC-44; first compound 0.1581 µM)?
The relative viability was 0.379.

What about the relative viability (HCC-44; first compound 0.5 µM) of the same compound?
Its relative viability is 0.255.

What about the relative viability (SW 1573; first compound 0.005 µM) of the same compound?
Its relative viability is 0.184.

And the relative viability (SW 1573; first compound 0.01581 µM)?
The relative viability was 0.161.

What about the relative viability (SW 1573; first compound 0.05 µM) of the same compound?
The relative viability was 0.128.

And the relative viability (SW 1573; first compound 0.1581 µM)?
The relative viability was 0.169.

What about the relative viability (SW 1573; first compound 0.5 µM) of the same compound?
The relative viability was 0.101.

And the relative viability (LC-2-ad; first compound 0.005 µM)?
Its relative viability is 0.415.

And the relative viability (LC-2-ad; first compound 0.01581 µM)?
Its relative viability is 0.452.

What about the relative viability (LC-2-ad; first compound 0.05 µM) of the same compound?
The relative viability was 0.418.

And the relative viability (LC-2-ad; first compound 0.1581 µM)?
Its relative viability is 0.39.

And the relative viability (LC-2-ad; first compound 0.5 µM)?
The relative viability was 0.301.

What about the relative viability (NCI-H2126; first compound 0.005 µM) of the same compound?
Its relative viability is 0.655.

And the relative viability (NCI-H2126; first compound 0.01581 µM)?
The relative viability was 0.774.

And the relative viability (NCI-H2126; first compound 0.05 µM)?
Its relative viability is 0.607.

What about the relative viability (NCI-H2126; first compound 0.1581 µM) of the same compound?
Its relative viability is 0.53.

And the relative viability (NCI-H2126; first compound 0.5 µM)?
The relative viability was 0.348.

What about the relative viability (NCI-H650; first compound 0.005 µM) of the same compound?
The relative viability was 0.595.

And the relative viability (NCI-H650; first compound 0.01581 µM)?
Its relative viability is 0.513.

And the relative viability (NCI-H650; first compound 0.05 µM)?
The relative viability was 0.34.

What about the relative viability (NCI-H650; first compound 0.1581 µM) of the same compound?
Its relative viability is 0.249.

And the relative viability (NCI-H650; first compound 0.5 µM)?
The relative viability was 0.176.

And the relative viability (PC-14; first compound 0.005 µM)?
The relative viability was 0.404.

What about the relative viability (PC-14; first compound 0.01581 µM) of the same compound?
The relative viability was 0.448.

What about the relative viability (PC-14; first compound 0.05 µM) of the same compound?
Its relative viability is 0.248.

And the relative viability (PC-14; first compound 0.1581 µM)?
Its relative viability is 0.157.

What about the relative viability (PC-14; first compound 0.5 µM) of the same compound?
The relative viability was 0.0594.

And the relative viability (UMC-11; first compound 0.005 µM)?
Its relative viability is 0.261.

And the relative viability (UMC-11; first compound 0.01581 µM)?
Its relative viability is 0.219.

What about the relative viability (UMC-11; first compound 0.05 µM) of the same compound?
Its relative viability is 0.222.

And the relative viability (UMC-11; first compound 0.1581 µM)?
Its relative viability is 0.231.

What about the relative viability (UMC-11; first compound 0.5 µM) of the same compound?
Its relative viability is 0.2.

And the relative viability (NCI-H1915; first compound 0.005 µM)?
The relative viability was 0.351.

What about the relative viability (NCI-H1915; first compound 0.01581 µM) of the same compound?
Its relative viability is 0.472.

And the relative viability (NCI-H1915; first compound 0.05 µM)?
Its relative viability is 0.401.

What about the relative viability (NCI-H1915; first compound 0.1581 µM) of the same compound?
Its relative viability is 0.319.

And the relative viability (NCI-H1915; first compound 0.5 µM)?
The relative viability was 0.32.

And the relative viability (NCI-H1355; first compound 0.005 µM)?
The relative viability was 0.52.

What about the relative viability (NCI-H1355; first compound 0.01581 µM) of the same compound?
The relative viability was 0.524.

And the relative viability (NCI-H1355; first compound 0.05 µM)?
The relative viability was 0.484.

What about the relative viability (NCI-H1355; first compound 0.1581 µM) of the same compound?
The relative viability was 0.269.

What about the relative viability (NCI-H1355; first compound 0.5 µM) of the same compound?
The relative viability was 0.314.

What about the relative viability (NCI-H1651; first compound 0.005 µM) of the same compound?
Its relative viability is 0.688.

And the relative viability (NCI-H1651; first compound 0.01581 µM)?
Its relative viability is 0.707.

And the relative viability (NCI-H1651; first compound 0.05 µM)?
Its relative viability is 0.746.

And the relative viability (NCI-H1651; first compound 0.1581 µM)?
Its relative viability is 0.577.

What about the relative viability (NCI-H1651; first compound 0.5 µM) of the same compound?
The relative viability was 0.206.

And the relative viability (EPLC-272H; first compound 0.005 µM)?
Its relative viability is 0.294.

And the relative viability (EPLC-272H; first compound 0.01581 µM)?
Its relative viability is 0.199.

What about the relative viability (EPLC-272H; first compound 0.05 µM) of the same compound?
The relative viability was 0.289.

What about the relative viability (EPLC-272H; first compound 0.1581 µM) of the same compound?
Its relative viability is 0.29.

What about the relative viability (EPLC-272H; first compound 0.5 µM) of the same compound?
Its relative viability is 0.261.

And the relative viability (NCI-H2085; first compound 0.005 µM)?
Its relative viability is 0.809.

What about the relative viability (NCI-H2085; first compound 0.01581 µM) of the same compound?
The relative viability was 0.806.

And the relative viability (NCI-H2085; first compound 0.05 µM)?
Its relative viability is 0.844.

What about the relative viability (NCI-H2085; first compound 0.1581 µM) of the same compound?
Its relative viability is 0.694.

What about the relative viability (NCI-H2085; first compound 0.5 µM) of the same compound?
Its relative viability is 0.719.

What about the relative viability (HOP-62; first compound 0.005 µM) of the same compound?
Its relative viability is 0.251.

What about the relative viability (HOP-62; first compound 0.01581 µM) of the same compound?
Its relative viability is 0.259.

And the relative viability (HOP-62; first compound 0.05 µM)?
Its relative viability is 0.282.

And the relative viability (HOP-62; first compound 0.5 µM)?
Its relative viability is 0.0966.

And the relative viability (HCC-15; first compound 0.005 µM)?
Its relative viability is 0.413.

And the relative viability (HCC-15; first compound 0.01581 µM)?
The relative viability was 0.57.

And the relative viability (HCC-15; first compound 0.05 µM)?
Its relative viability is 0.577.

And the relative viability (HCC-15; first compound 0.1581 µM)?
The relative viability was 0.461.

What about the relative viability (HCC-15; first compound 0.5 µM) of the same compound?
The relative viability was 0.354.

And the relative viability (ABC-1; first compound 0.005 µM)?
Its relative viability is 0.209.

And the relative viability (ABC-1; first compound 0.01581 µM)?
Its relative viability is 0.176.

What about the relative viability (ABC-1; first compound 0.05 µM) of the same compound?
Its relative viability is 0.174.

And the relative viability (ABC-1; first compound 0.1581 µM)?
Its relative viability is 0.154.

What about the relative viability (ABC-1; first compound 0.5 µM) of the same compound?
The relative viability was 0.183.

What about the relative viability (LU99A; first compound 0.005 µM) of the same compound?
Its relative viability is 0.263.

And the relative viability (LU99A; first compound 0.01581 µM)?
The relative viability was 0.273.

What about the relative viability (LU99A; first compound 0.05 µM) of the same compound?
Its relative viability is 0.275.

And the relative viability (LU99A; first compound 0.1581 µM)?
The relative viability was 0.288.

What about the relative viability (LU99A; first compound 0.5 µM) of the same compound?
Its relative viability is 0.281.

And the relative viability (NCI-H838; first compound 0.005 µM)?
Its relative viability is 0.29.

And the relative viability (NCI-H838; first compound 0.01581 µM)?
Its relative viability is 0.319.

What about the relative viability (NCI-H838; first compound 0.05 µM) of the same compound?
Its relative viability is 0.231.

And the relative viability (NCI-H838; first compound 0.1581 µM)?
Its relative viability is 0.231.

And the relative viability (NCI-H838; first compound 0.5 µM)?
Its relative viability is 0.161.

And the relative viability (NCI-H2347; first compound 0.005 µM)?
Its relative viability is 0.553.

And the relative viability (NCI-H2347; first compound 0.01581 µM)?
Its relative viability is 0.427.

And the relative viability (NCI-H2347; first compound 0.05 µM)?
Its relative viability is 0.444.

And the relative viability (NCI-H2347; first compound 0.1581 µM)?
The relative viability was 0.52.

What about the relative viability (NCI-H2347; first compound 0.5 µM) of the same compound?
Its relative viability is 0.402.

And the relative viability (HARA; first compound 0.005 µM)?
Its relative viability is 0.102.

And the relative viability (HARA; first compound 0.01581 µM)?
Its relative viability is 0.102.

What about the relative viability (HARA; first compound 0.05 µM) of the same compound?
Its relative viability is 0.0829.

And the relative viability (HARA; first compound 0.1581 µM)?
Its relative viability is 0.0658.

What about the relative viability (HARA; first compound 0.5 µM) of the same compound?
Its relative viability is 0.0703.

And the relative viability (NCI-H1993; first compound 0.005 µM)?
Its relative viability is 0.631.

What about the relative viability (NCI-H1993; first compound 0.01581 µM) of the same compound?
The relative viability was 0.633.

What about the relative viability (NCI-H1993; first compound 0.05 µM) of the same compound?
The relative viability was 0.681.

What about the relative viability (NCI-H1993; first compound 0.1581 µM) of the same compound?
The relative viability was 0.534.

What about the relative viability (NCI-H1993; first compound 0.5 µM) of the same compound?
Its relative viability is 0.564.

What about the relative viability (NCI-H2023; first compound 0.005 µM) of the same compound?
The relative viability was 0.238.

What about the relative viability (NCI-H2023; first compound 0.01581 µM) of the same compound?
The relative viability was 0.223.

What about the relative viability (NCI-H2023; first compound 0.05 µM) of the same compound?
Its relative viability is 0.176.

And the relative viability (NCI-H2023; first compound 0.1581 µM)?
The relative viability was 0.101.

What about the relative viability (NCI-H2023; first compound 0.5 µM) of the same compound?
The relative viability was 0.0955.

What about the relative viability (COR-L23; first compound 0.005 µM) of the same compound?
The relative viability was 0.164.

And the relative viability (COR-L23; first compound 0.01581 µM)?
Its relative viability is 0.141.

And the relative viability (COR-L23; first compound 0.05 µM)?
Its relative viability is 0.159.

And the relative viability (COR-L23; first compound 0.1581 µM)?
The relative viability was 0.123.

What about the relative viability (COR-L23; first compound 0.5 µM) of the same compound?
Its relative viability is 0.129.
